Assays:
PI3Kα = PI3Kα (Homo sapiens (Human), UniProt P42336); settings: read-out: PI3Kα AlphaScreen ® Ki
[1] = tested on: phosphorylation of Akt at Serine 473 in U87 MG cells; assay: cells; settings: Homo sapiens, U-87 MG, 2 h, read-out: U87Cell IC50, pAkt (Ser 473), U87 MG cells, two hours with compound

Chain of PI3Kα (P42336 whole entry): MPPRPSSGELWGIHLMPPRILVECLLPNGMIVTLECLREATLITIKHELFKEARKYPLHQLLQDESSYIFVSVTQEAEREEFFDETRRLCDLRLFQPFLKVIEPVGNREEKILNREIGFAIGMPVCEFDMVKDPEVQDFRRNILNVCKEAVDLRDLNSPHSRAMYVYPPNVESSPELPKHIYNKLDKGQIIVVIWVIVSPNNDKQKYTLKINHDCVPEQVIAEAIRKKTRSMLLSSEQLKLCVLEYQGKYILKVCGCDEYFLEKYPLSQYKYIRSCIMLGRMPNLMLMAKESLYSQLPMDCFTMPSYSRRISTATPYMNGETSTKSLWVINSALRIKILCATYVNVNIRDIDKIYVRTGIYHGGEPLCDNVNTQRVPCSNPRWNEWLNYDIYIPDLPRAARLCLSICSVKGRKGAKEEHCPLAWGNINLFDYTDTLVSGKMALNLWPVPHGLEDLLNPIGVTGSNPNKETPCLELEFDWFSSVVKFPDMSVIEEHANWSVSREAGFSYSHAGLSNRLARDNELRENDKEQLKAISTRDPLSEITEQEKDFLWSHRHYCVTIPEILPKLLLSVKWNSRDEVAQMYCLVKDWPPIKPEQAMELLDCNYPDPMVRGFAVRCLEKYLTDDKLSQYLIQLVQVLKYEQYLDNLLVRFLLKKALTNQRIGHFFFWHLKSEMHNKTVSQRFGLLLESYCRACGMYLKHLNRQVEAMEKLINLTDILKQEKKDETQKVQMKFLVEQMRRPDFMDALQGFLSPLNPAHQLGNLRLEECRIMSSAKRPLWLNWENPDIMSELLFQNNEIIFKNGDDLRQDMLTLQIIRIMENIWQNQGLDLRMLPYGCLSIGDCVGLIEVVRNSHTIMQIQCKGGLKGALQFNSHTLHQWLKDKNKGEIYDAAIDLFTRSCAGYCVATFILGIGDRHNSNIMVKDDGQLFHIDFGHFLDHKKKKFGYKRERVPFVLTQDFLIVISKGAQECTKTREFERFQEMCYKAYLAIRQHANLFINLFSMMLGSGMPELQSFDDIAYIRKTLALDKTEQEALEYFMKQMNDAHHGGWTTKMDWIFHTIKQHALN
Chain of PI3Kα (P27986 whole entry partner): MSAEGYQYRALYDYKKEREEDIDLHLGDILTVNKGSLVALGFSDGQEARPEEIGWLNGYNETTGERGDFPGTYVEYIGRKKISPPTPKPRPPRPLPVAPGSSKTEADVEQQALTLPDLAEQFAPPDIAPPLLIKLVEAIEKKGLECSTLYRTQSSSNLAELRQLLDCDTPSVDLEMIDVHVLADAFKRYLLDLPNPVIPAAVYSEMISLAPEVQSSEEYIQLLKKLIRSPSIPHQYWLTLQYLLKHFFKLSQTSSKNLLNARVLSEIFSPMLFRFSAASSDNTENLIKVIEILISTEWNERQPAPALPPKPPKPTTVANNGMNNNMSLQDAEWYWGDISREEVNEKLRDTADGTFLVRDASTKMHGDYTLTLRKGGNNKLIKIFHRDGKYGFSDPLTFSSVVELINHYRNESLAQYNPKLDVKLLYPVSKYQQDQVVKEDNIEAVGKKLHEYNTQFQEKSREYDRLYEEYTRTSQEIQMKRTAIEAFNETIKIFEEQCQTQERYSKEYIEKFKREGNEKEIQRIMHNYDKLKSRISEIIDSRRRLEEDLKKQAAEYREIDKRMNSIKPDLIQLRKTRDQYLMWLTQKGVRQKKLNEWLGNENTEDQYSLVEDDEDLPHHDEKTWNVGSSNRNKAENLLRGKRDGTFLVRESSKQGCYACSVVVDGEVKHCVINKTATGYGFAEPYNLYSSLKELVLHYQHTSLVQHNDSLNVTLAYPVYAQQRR

SMILES	Ki (PI3Kα) [µM]	IC50 [1] [µM]
Cc1nc(N)nc(-c2cc(Cl)cnc2NC2CCOCC2)n1 [Example 188, 4-(5-Chloro-2-(Tetrahydro-2H-Pyran-4-Ylamino)Pyridin-3-yl)-6-Methyl-1,3,5-Triazin-2-Amine]	2.08	> 10
COCCNc1nc(C)nc(-c2cc(Cl)cnc2Nc2cnc(OC)c(F)c2)n1 [Example 189, 4-(5-Chloro-2-(5-Fluoro-6-Methoxypyridin-3-Ylamino)Pyridin-3-yl)-N-(2-Methoxyethyl)-6-Methyl-1,3,5-Triazin-2-Amine]	0.409	> 10
Cc1nc(N)nc(-c2cccnc2Nc2ccc(NC(=O)NC(C)C)nc2)n1 [Example 192, 1-(5-(3-(4-Amino-6-Methyl-1,3,5-Triazin-2-yl)Pyridin-2-Ylamino)Pyridin-2-yl)-3-Isopropylurea]	0.691	0.941
CC(=O)Nc1ccc(Nc2ncc(CN3CCN(S(C)(=O)=O)CC3)cc2-c2nc(C)nc(N)n2)cn1 [Example 196, N-(5-(3-(4-Amino-6-Methyl-1,3,5-Triazin-2-yl)-5-((4-(Methylsulfonyl)Piperazin-1-yl)Methyl)Pyridin-2-Ylamino)Pyridin-2-yl)Acetamide]	0.052	0.322
COc1ncc(Nc2nc(CN3CCOCC3)ccc2-c2nc(C)nc(N)n2)cc1F [Example 198, 4-(2-(5-Fluoro-6-Methoxypyridin-3-Ylamino)-6-(Morpholinomethyl)Pyridin-3-yl)-6-Methyl-1,3,5-Triazin-2-Amine]	0.276	0.219
COc1ncc(Nc2nc(COCC(F)(F)F)ccc2-c2nc(C)nc(N)n2)cc1F [Example 199, 4-(2-(5-Fluoro-6-Methoxypyridin-3-Ylamino)-6-((2,2,2-Trifluoroethoxy)Methyl)Pyridin-3-yl)-6-Methyl-1,3,5-Triazin-2-Amine]	0.068	0.227
Cc1ccc(-c2nc(C)nc(N)n2)c(Nc2cncc(F)c2)n1 [Example 200, 4-(2-(5-Fluoropyridin-3-Ylamino)-6-Methylpyridin-3-yl)-6-Methyl-1,3,5-Triazin-2-Amine]	0.18	> 10
COc1ccc(Nc2ncc(CN3CCSCC3)cc2-c2nc(C)nc(N)n2)cn1 [Example 201, 4-(2-(6-Methoxypyridin-3-Ylamino)-5-(Thiomorpholinomethyl)Pyridin-3-yl)-6-Methyl-1,3,5-Triazin-2-Amine]	0.094	0.066
COc1ccc(Nc2ncc(CN3CC[S+]([O-])CC3)cc2-c2nc(C)nc(N)n2)cn1 [Example 202, 4-(2-(6-Methoxypyridin-3-Ylamino)-5-(1-Sulfoxidemorpholinomethyl)Pyridin-3-yl)-6-Methyl-1,3,5-Triazin-2-Amine]	0.147	0.124
COc1ccc(Nc2ncc(N3CC[C@H](O)C3)cc2-c2nc(C)nc3[nH]cnc23)cn1 [Example 205, (3S)-1-(6-((6-Methoxy-3-Pyridinyl)Amino)-5-(2-Methyl-9H-Purin-6-yl)-3-Pyridinyl)-3-Pyrrolidinol]	0.047	0.384
COc1ccc(Nc2ncc(N3CC[C@@H](O)C3)cc2-c2nc(C)nc3[nH]cnc23)cn1 [Example 206, (3R)-1-(6-((6-Methoxy-3-Pyridinyl)Amino)-5-(2-Methyl-9H-Purin-6-yl)-3-Pyridinyl)-3-Pyrrolidinol]	0.068	0.387
COc1ccc(Nc2ncc(CN3CCOC[C@@H]3C)cc2-c2nc(C)nc(N)n2)cn1 [Example 219, (S)-4-(2-(6-Methoxypyridin-3-Ylamino)-5-((3-Methylmorpholino)Methyl)Pyridin-3-yl)-6-Methyl-1,3,5-Triazin-2-Amine]	0.093	0.295
COc1ccc(Nc2ncc(CNCCO)cc2-c2nc(C)nc(N)n2)cn1 [Example 225, 2-((5-(4-Amino-6-Methyl-1,3,5-Triazin-2-yl)-6-(6-Methoxypyridin-3-Ylamino)Pyridin-3-yl)Methylamino)Ethanol]	0.135	0.275
COc1ccc(Nc2ncc(CN[C@H](C)CO)cc2-c2nc(C)nc(N)n2)cn1 [Example 226, (R)-2-((5-(4-Amino-6-Methyl-1,3,5-Triazin-2-yl)-6-(6-Methoxypyridin-3-Ylamino)Pyridin-3-yl)Methylamino)Propan-1-ol]	0.354	0.573
COc1ccc(Nc2ncc(CN3CC(O)C3)cc2-c2nc(C)nc(N)n2)cn1 [Example 229, 1-((5-(4-Amino-6-Methyl-1,3,5-Triazin-2-yl)-6-(6-Methoxypyridin-3-Ylamino)Pyridin-3-yl)Methyl)Azetidin-3-ol]	0.059	0.276
COc1ccc(Nc2ncc(CN3CC4(C3)NC(=O)NC4=O)cc2-c2nc(C)nc(N)n2)cn1 [Example 230, 2-((5-(4-Amino-6-Methyl-1,3,5-Triazin-2-yl)-6-(6-Methoxypyridin-3-Ylamino)Pyridin-3-yl)Methyl)-2,5,7-Triazaspiro[3.4]Octane-6,8-Dione]	0.068	2.47
COc1ccc(Nc2ncc(CN3CC(N)C3)cc2-c2nc(C)nc(N)n2)cn1 [Example 231, 4-(5-((3-Aminoazetidin-1-yl)Methyl)-2-(6-Methoxypyridin-3-Ylamino)Pyridin-3-yl)-6-Methyl-1,3,5-Triazin-2-Amine]	0.446	0.404

These reach a lower Ki (PI3Kα). Values come first.

Ki (PI3Kα) [µM]	IC50 [1] [µM]	SMILES
0.045	0.245	COc1ccc(Nc2nc3ccccc3cc2-c2nc(C)nc(N)n2)cn1 [Example 238, 3-(4-Amino-6-Methyl-1,3,5-Triazin-2-yl)-N-(6-Methoxypyridin-3-yl)Quinolin-2-Amine]
0.043	0.087	Cc1nc(N)nc(-c2cc(CN3CCN(S(C)(=O)=O)CC3)cnc2Nc2ccc3ncsc3c2)n1 [Example 241, N-(3-(4-Amino-6-Methyl-1,3,5-Triazin-2-yl)-5-((4-(Methylsulfonyl)Piperazin-1-yl)Methyl)Pyridin-2-yl)Benzo[D]Thiazol-6-Amine]
0.041	0.058	COc1ccc(Nc2ncc(CN3CCn4ncnc4C3)cc2-c2nc(C)nc(N)n2)cn1 [Example 233, 4-(5-((5,6-Dihydro-[1,2,4]Triazolo[1,5-A]Pyrazin-7(8H)-yl)Methyl)-2-(6-Methoxypyridin-3-Ylamino)Pyridin-3-yl)-6-Methyl-1,3,5-Triazin-2-Amine]
0.04	0.434	COc1ccc(Nc2ncc(N3CC[C@H](CO)C3)cc2-c2nc(C)nc3[nH]cnc23)cn1 [Example 204, ((3S)-1-(6-((6-Methoxy-3-Pyridinyl)Amino)-5-(2-Methyl-9H-Purin-6-yl)-3-Pyridinyl)-3-Pyrrolidinyl)Methanol]
0.039	0.078	COc1ccc(Nc2ncc(CN3CC(NS(C)(=O)=O)C3)cc2-c2nc(C)nc(N)n2)cn1 [Example 232, N-(1-((5-(4-Amino-6-Methyl-1,3,5-Triazin-2-yl)-6-(6-Methoxypyridin-3-Ylamino)Pyridin-3-yl)Methyl)Azetidin-3-yl)Methanesulfonamide]
0.033	0.211	COc1ncc(Nc2nc(C)ccc2-c2nc(C)nc(N)n2)cc1F [Example 197, 4-(2-(5-Fluoro-6-Methoxypyridin-3-Ylamino)-6-Methylpyridin-3-yl)-6-Methyl-1,3,5-Triazin-2-Amine]
0.023	> 10	COc1ccc(Nc2ncc(C(O)c3cc(Br)ccc3S(=O)(=O)N(C)C)cc2-c2nc(C)nc(N)n2)cn1 (centres unmarked) [Example 235, 2-((5-(4-Amino-6-Methyl-1,3,5-Triazin-2-yl)-6-(6-Methoxypyridin-3-Ylamino)Pyridin-3-yl)(Hydroxy)Methyl)-4-Bromo-N,N-Dimethylbenzenesulfonamide]
0.018	0.046	COc1ccc(Nc2ncc(C(N)c3ccc(S(=O)(=O)N(C)C)cc3)cc2-c2nc(C)nc(N)n2)cn1 (centres unmarked) [Example 237, 4-(Amino(5-(4-Amino-6-Methyl-1,3,5-Triazin-2-yl)-6-(6-Methoxypyridin-3-Ylamino)Pyridin-3-yl)Methyl)-N,N-Dimethylbenzenesulfonamide]
0.016	> 10	COCCOc1ccc(NC(=O)Nc2ccc(Nc3ncc(Cl)cc3-c3nc(C)nc(N)n3)cn2)cc1 [Example 195, 1-(5-(3-(4-Amino-6-Methyl-1,3,5-Triazin-2-yl)-5-Chloropyridin-2-Ylamino)Pyridin-2-yl)-3-(4-(2-Methoxyethoxy)Phenyl)Urea]
0.016	0.562	Cc1nc(N)nc(-c2cc(CN3CCN(S(C)(=O)=O)CC3)cnc2Nc2cnc3c(c2)ncn3C)n1 [Example 203, N-(3-(4-Amino-6-Methyl-1,3,5-Triazin-2-yl)-5-((4-(Methylsulfonyl)Piperazin-1-yl)Methyl)Pyridin-2-yl)-3-Methyl-3H-Imidazo[4,5-B]Pyridin-6-Amine]
0.013	0.018	COc1ncc(Nc2ncc(C=O)cc2-c2nc(C)nc(N)n2)cc1F [Example 187, 5-(4-Amino-6-Methyl-1,3,5-Triazin-2-yl)-6-(5-Fluoro-6-Methoxypyridin-3-Ylamino)Nicotinaldehyde]
0.008	0.043	Cc1nc(N)nc(-c2cc(CN3CCN(S(C)(=O)=O)CC3)cnc2Nc2ccc3scnc3c2)n1 [Example 240, N-(3-(4-Amino-6-Methyl-1,3,5-Triazin-2-yl)-5-((4-(Methylsulfonyl)Piperazin-1-yl)Methyl)Pyridin-2-yl)Benzo[D]Thiazol-5-Amine]
0.006	0.028	COc1ccc(Nc2ncc(CN3CC(S(C)(=O)=O)C3)cc2-c2nc(C)nc(N)n2)cn1 [Example 223, 4-(2-(6-Methoxypyridin-3-Ylamino)-5-((3-(Methylsulfonyl)Azetidin-1-yl)Methyl)Pyridin-3-yl)-6-Methyl-1,3,5-Triazin-2-Amine]
0.004	> 10	COc1ccc(Nc2ncc(C(O)c3ccc(S(=O)(=O)N(C)C)cc3)cc2-c2nc(C)nc(N)n2)cn1 (centres unmarked) [Example 236, 4-((5-(4-Amino-6-Methyl-1,3,5-Triazin-2-yl)-6-(6-Methoxypyridin-3-Ylamino)Pyridin-3-yl)(Hydroxy)Methyl)-N,N-Dimethylbenzenesulfonamide]

Reference: patent publication US8772480B2, “Inhibitors of PI3 kinase and/or mTOR” (priority 2009, dated 2014)
